For 24 molecules, IC50 results are on record in ChEMBL document CHEMBL5038615, “Discovery of a cinnamyl piperidine derivative as new neddylation inhibitor for gastric cancer treatment” (Eur J Med Chem, 2021).

As usually defined, the IC50 is the concentration that gives 50% inhibition.

Each structure is given as a SMILES string. Bounds are passed on as bounds.

One series deals with A549. The experiment in a line: Antiproliferative activity against human A549 cells assessed as inhibition of cell proliferation measured after 72 hrs by MTT assay. The settings on record: A549, 72 h. The format is functional, cell-based.
For the next series, the system named is HepG2. Kind of series: Antiproliferative activity against human HepG2 cells assessed as inhibition of cell proliferation measured after 72 hrs by MTT assay. The format is functional, cell-based. To be noted: HepG2, 72 h. A general note: Formazan colour is commonly taken as a measure of viable cells.
In a further series the test system is MCF7. Kind of series: Antiproliferative activity against human MCF7 cells assessed as inhibition of cell proliferation measured after 72 hrs by MTT assay. The format is functional, cell-based. The settings on record: MCF7, 72 h.
For the next series, the system named is MGC-803. Kind of series: Antiproliferative activity against human MGC-803 cells assessed as inhibition of cell proliferation measured after 72 hrs by MTT assay. Type of series: functional, cell-based. To be noted: MGC-803, 72 h.
Series [1] in a line: Cytotoxicity against human GES1 cells assessed as inhibition of cell proliferation measured after 72 hrs by MTT assay. Type of series: toxicity, cell-based.
The subject of another series is HGC-27. The experiment in a line: Antiproliferative activity against human HGC-27 cells assessed as inhibition of cell proliferation measured after 72 hrs by MTT assay. The settings on record: HGC-27, 72 h. Type of series: functional, cell-based.

With `O=C(Nc1cccc(Cl)c1)C1CCN(C/C=C/c2ccccc2)CC1`, the IC50 came out at 19.1 µM in the series on A549, 20 µM with HepG2, 16.1 µM in the series with MCF7 and 11.3 µM in the series on MGC-803.
In the same order, the values of `O=c1[nH]cc(F)c(=O)[nH]1` [FLUOROURACIL] are 15.1 µM, 6.69 µM, 9.49 µM and 12.1 µM.
For `O=C(Nc1cccc(F)c1)C1CCN(C/C=C/c2ccccc2)CC1`, in that order: 43.3 µM, 51.1 µM, 33 µM and 23.3 µM.
Turning to `O=C(Nc1cc(-c2cccc(Br)c2)on1)C1CCN(C/C=C/c2ccccc2)CC1`, the IC50 with A549 is 6.53 µM; with HepG2 it was 4.42 µM; in the series on MCF7 it was 4.87 µM; in the series on MGC-803, 4.61 µM.
For `O=C(Nc1cccc(Br)c1)C1CCN(C/C=C/c2ccccc2)CC1`, in that order: 16.4 µM, 19.2 µM, 11.5 µM and 9.11 µM.
In the same order, the values of `CCc1ccc(NC(=O)C2CCN(C/C=C/c3ccccc3)CC2)cc1` are 19.6 µM, 23.3 µM, 20 µM and 11.6 µM.
In the same order, the values of `N#Cc1ccc(NC(=O)C2CCN(C/C=C/c3ccccc3)CC2)cc1` are 40.2 µM, 38.3 µM, 44.5 µM and 28.2 µM.
Regarding `CCCCc1ccc(NC(=O)C2CCN(C/C=C/c3ccccc3)CC2)cc1`, the IC50 with A549 came out at 5.91 µM; in the series with HepG2 it was 4.32 µM; with MCF7, 5.87 µM; with MGC-803, 2.57 µM.
In the same order, the values of `COc1ccccc1NC(=O)C1CCN(C/C=C/c2ccccc2)CC1` are more than 100 µM, 91.2 µM, more than 100 µM and 71.2 µM.
In the same order, the values of `O=C(Nc1cccc2cccnc12)C1CCN(C/C=C/c2ccccc2)CC1` are 51.6 µM, 29.5 µM, 34.8 µM and 38.1 µM.
For `CN1CCN(c2ccc(NC(=O)C3CCN(C/C=C/c4ccccc4)CC3)cc2)CC1`, in that order: 19.9 µM, 35.2 µM, 44 µM and 14 µM.
For the molecule `O=C(Nc1cccc(C(F)(F)F)c1)C1CCN(C/C=C/c2ccccc2)CC1`, the IC50 turned out to be 15.6 µM with A549, 11.4 µM in the series with HepG2, 16.1 µM with MCF7 and 9.59 µM with MGC-803.
Turning to `NS(=O)(=O)OC[C@@H]1CC(n2ccc3c(N[C@H]4CCc5ccccc54)ncnc32)C[C@@H]1O` (single isomer, unassigned) [PEVONEDISTAT], the IC50 at 72 h in series [1] was 13.5 µM. Besides, the IC50 in the series on HGC-27 is 1250 nM; with A549, 47.8 µM; in the series with HepG2, 8.15 µM; in the series with MCF7, more than 100 µM; in the series with MGC-803, 5.16 µM.
Take `Cc1ccc(NC(=O)C2CCN(C/C=C/c3ccccc3)CC2)cc1`: the IC50 came to 29.6 µM with A549, 33.9 µM with HepG2, 30 µM with MCF7 and 24.1 µM in the series on MGC-803.
In the same order, the values of `CCCc1ccc(NC(=O)C2CCN(C/C=C/c3ccccc3)CC2)cc1` are 9.47 µM, 9.41 µM, 9.03 µM and 5.21 µM.
In the same order, the values of `O=C(Nc1ccccc1)C1CCN(C/C=C/c2ccccc2)CC1` are 69.7 µM, 90.9 µM, 60.2 µM and 57.9 µM.
In the same order, the values of `O=C(Nc1nc2ccc(Br)cc2s1)C1CCN(C/C=C/c2ccccc2)CC1` are 17.7 µM, 32.1 µM, 14.6 µM and 4.38 µM.
As for `O=C(Nc1ccccn1)C1CCN(C/C=C/c2ccccc2)CC1`, the IC50 came out at 89.3 µM in the series with A549, 51.1 µM in the series with HepG2, 67.2 µM in the series with MCF7 and 45.2 µM in the series on MGC-803.
For `O=C(Nc1nccs1)C1CCN(C/C=C/c2ccccc2)CC1`, in that order: 34.9 µM, 22.4 µM, 28.6 µM and 16.4 µM.
For `O=C(Nc1ccc(F)c(Br)c1)C1CCN(C/C=C/c2ccccc2)CC1`, in that order: 11.7 µM, 8.19 µM, 13.5 µM and 9.27 µM.
In the same order, the values of `COc1cccc(NC(=O)C2CCN(C/C=C/c3ccccc3)CC2)c1` are 50.5 µM, 78.6 µM, 42.6 µM and 37.2 µM.
With `O=C(NCc1ccccc1)C1CCN(C/C=C/c2ccccc2)CC1`, the IC50 with A549, with HepG2, in the series with MCF7 and with MGC-803 was more than 100 µM in each case.
Regarding `CC(C)c1ccc(NC(=O)C2CCN(C/C=C/c3ccccc3)CC2)cc1`, the IC50 with A549 came out at 9.43 µM; in the series on HepG2, 12.2 µM; with MCF7, 9.1 µM; in the series with MGC-803, 5.2 µM.
For `COc1ccc(NC(=O)C2CCN(C/C=C/c3ccccc3)CC2)cc1`, in that order: 83.8 µM, 88.8 µM, more than 100 µM and 58.2 µM.
